{"source": "paper PMC4904354", "about": "(Journal of Cerebral Blood Flow & Metabolism, 2015)", "key": {"[1]": {"experiment": "S-ketamine challenge: plasma concentration and tolerability", "assay_type": "in vivo, human"}, "[2]": {"biological_target": "NMDA receptor ion-channel", "details": "read-out: apparent affinity value against [^3H]MK-801 (Ki); no reference given; cited from earlier work"}, "NMDA receptor [3]": {"biological_target": "NMDA receptor", "details": "cited from earlier work"}, "[4]": {"details": "cited from earlier work"}, "NMDA receptor [5]": {"test_system": "NMDA receptor", "details": "cited from earlier work", "remark": "listed apart in the source"}, "[6]": {"experiment": "Plasma metabolite analysis of [^11C]GMOM", "assay_type": "in vivo, human", "details": "for parent fraction in plasma: mean ± SD, all scans N = 15"}, "[7]": {"test_system": "N-methyl-D-aspartate receptor", "assay_type": "in vivo, human", "details": "for K1, rate constant of transport, mean (SD) / Ki, net influx rate constant, mean (SD) / VND(K1/k2), nondisplaceable distribution volume, mean (SD): 2T3k_VB model, 90 min data"}, "[8]": {"details": "followed by prolonged modest decrease until 90 min"}, "[9]": {"details": "cerebellum, after S-ketamine 0.3 mgkg^−1 i.v., N = 6"}, "[10]": {"details": "frontal cortex, baseline, N = 9"}, "[11]": {"details": "occipital cortex, baseline, N = 9"}, "[12]": {"details": "parietal cortex, baseline, N = 9"}, "[13]": {"details": "striatum, after S-ketamine 0.3 mgkg^−1 i.v., N = 6"}, "[14]": {"details": "temporal cortex, baseline, N = 9"}, "[15]": {"details": "thalamus, after S-ketamine 0.3 mgkg^−1 i.v., N = 6"}, "[16]": {"details": "whole brain gray matter, baseline, N = 9"}}, "note": "Like-named read-outs stand apart in the source and are kept apart here.", "data": [{"smiles": "CN[C@]1(c2ccccc2Cl)CCCCC1=O", "note": "[S-ketamine]", "values": [{"measurement": "mean plasma level of S-ketamine during the blocking scans", "setting": "[1]; 0.3 mgkg^−1 i.v., pseudo-steady state, healthy volunteers", "value": 56.2, "unit": "ngml^−1"}, {"measurement": "tolerability of the administered dose during scans", "setting": "[1]; 0.3 mgkg^−1 i.v., healthy volunteers", "value": "able to tolerate"}, {"measurement": "mean S-ketamine plasma concentration", "setting": "[1]; at the end of the scan, six subjects, 0.3 mg kg^−1 i.v. pseudo-steady state", "value": 38, "unit": "ng/mL"}, {"measurement": "Ki", "setting": "[2]", "value": "~1000", "unit": "nM"}]}, {"smiles": "CSc1cccc(N(C)C(N)=Nc2cc(SCCF)ccc2Cl)c1", "note": "[[[18]F]GE-179]", "values": [{"measurement": "Kd", "setting": "NMDA receptor [3]", "value": 2.4, "unit": "nM"}]}, {"smiles": "CSc1cccc(N(C)C(N)=Nc2cc(SCC[18F])ccc2Cl)c1", "note": "[[[18]F]GE-179]", "values": [{"measurement": "log D7.4", "setting": "[4]; pH 7.4", "value": 2.49}, {"measurement": "mean parent fraction remaining in plasma", "setting": "NMDA receptor [5]; at 20 min postinjection", "value": 50, "unit": "%"}, {"measurement": "time of peak uptake in brain TACs", "setting": "NMDA receptor [5]; [8]", "value": "around 20 min"}]}, {"smiles": "CSc1ccc(Cl)c(NC(=N)N(C)c2cccc(S[11CH3])c2)c1", "note": "[[^11C]CNS5161]", "values": [{"measurement": "log P", "setting": "[4]", "value": 1.92}]}, {"smiles": "CSc1cccc(N(C)C(=N)Nc2cc(SC)ccc2Cl)c1", "note": "[[^11C]CNS5161]", "values": [{"measurement": "Kd", "setting": "NMDA receptor [3]", "value": "1.9 ± 0.3", "unit": "nM"}]}, {"smiles": "CSc1ccc(Cl)c(NC(=N)N(C)c2cccc(O[11CH3])c2)c1", "note": "[[^11C]GMOM, N-(2-chloro-5-thiomethylphenyl)-N′-(3-[^11C]methoxy-phenyl)-N′-methylguanidine]", "values": [{"measurement": "parent fraction in plasma", "setting": "[6]; at 5 min p.i.", "value": "0.80 ± 0.06"}, {"measurement": "mean parent fraction remaining in plasma", "setting": "[6]; at 20 min postinjection", "value": 50, "unit": "%"}, {"measurement": "parent fraction in plasma", "setting": "[6]; at 60 min p.i.", "value": "0.21 ± 0.08"}, {"measurement": "nonpolar metabolites fraction in plasma", "setting": "[6]; at 90 min p.i.", "value": "1.5 ± 2.0", "unit": "%"}, {"measurement": "log P", "setting": "[4]", "value": 2.34}, {"measurement": "K1, rate constant of transport, mean (SD)", "setting": "[7]; [9]", "value": "0.45 (0.06) min^−1"}, {"measurement": "Ki, net influx rate constant, mean (SD)", "setting": "[7]; [9]", "value": "0.005 (0.008) min^−1"}, {"measurement": "VND(K1/k2), nondisplaceable distribution volume, mean (SD)", "setting": "[7]; [9]", "value": "9.37 (0.98)"}, {"measurement": "K1, rate constant of transport, mean (SD)", "setting": "[7]; cerebellum, baseline, N = 9", "value": "0.46 (0.07) min^−1"}, {"measurement": "Ki, net influx rate constant, mean (SD)", "setting": "[7]; cerebellum, baseline, N = 9", "value": "0.014 (0.010) min^−1"}, {"measurement": "VND(K1/k2), nondisplaceable distribution volume, mean (SD)", "setting": "[7]; cerebellum, baseline, N = 9", "value": "8.43 (2.02)"}, {"measurement": "time of peak uptake in brain TACs", "setting": "[7]; [8]", "value": "around 20 min"}, {"measurement": "K1, rate constant of transport, mean (SD)", "setting": "[7]; [10]", "value": "0.48 (0.07) min^−1"}, {"measurement": "Ki, net influx rate constant, mean (SD)", "setting": "[7]; [10]", "value": "0.023 (0.014) min^−1"}, {"measurement": "VND(K1/k2), nondisplaceable distribution volume, mean (SD)", "setting": "[7]; [10]", "value": "8.54 (2.00)"}, {"measurement": "K1, rate constant of transport, mean (SD)", "setting": "[7]; hippocampus, baseline, N = 9", "value": "0.36 (0.07) min^−1"}, {"measurement": "Ki, net influx rate constant, mean (SD)", "setting": "[7]; hippocampus, baseline, N = 9", "value": "0.028 (0.012) min^−1"}, {"measurement": "VND(K1/k2), nondisplaceable distribution volume, mean (SD)", "setting": "[7]; hippocampus, baseline, N = 9", "value": "7.82 (2.25)"}, {"measurement": "K1, rate constant of transport, mean (SD)", "setting": "[7]; [11]", "value": "0.47 (0.04) min^−1"}, {"measurement": "Ki, net influx rate constant, mean (SD)", "setting": "[7]; [11]", "value": "0.021 (0.012) min^−1"}, {"measurement": "VND(K1/k2), nondisplaceable distribution volume, mean (SD)", "setting": "[7]; [11]", "value": "8.53 (1.73)"}, {"measurement": "K1, rate constant of transport, mean (SD)", "setting": "[7]; [12]", "value": "0.46 (0.05) min^−1"}, {"measurement": "Ki, net influx rate constant, mean (SD)", "setting": "[7]; [12]", "value": "0.021 (0.014) min^−1"}, {"measurement": "VND(K1/k2), nondisplaceable distribution volume, mean (SD)", "setting": "[7]; [12]", "value": "8.81 (1.98)"}, {"measurement": "K1, rate constant of transport, mean (SD)", "setting": "[7]; [13]", "value": "0.50 (0.08) min^−1"}, {"measurement": "Ki, net influx rate constant, mean (SD)", "setting": "[7]; [13]", "value": "0.007 (0.007) min^−1"}, {"measurement": "VND(K1/k2), nondisplaceable distribution volume, mean (SD)", "setting": "[7]; [13]", "value": "9.88 (0.86)"}, {"measurement": "K1, rate constant of transport, mean (SD)", "setting": "[7]; striatum, baseline, N = 9", "value": "0.50 (0.06) min^−1"}, {"measurement": "Ki, net influx rate constant, mean (SD)", "setting": "[7]; striatum, baseline, N = 9", "value": "0.021 (0.015) min^−1"}, {"measurement": "VND(K1/k2), nondisplaceable distribution volume, mean (SD)", "setting": "[7]; striatum, baseline, N = 9", "value": "9.15 (1.85)"}, {"measurement": "K1, rate constant of transport, mean (SD)", "setting": "[7]; [14]", "value": "0.41 (0.06) min^−1"}, {"measurement": "Ki, net influx rate constant, mean (SD)", "setting": "[7]; [14]", "value": "0.020 (0.012) min^−1"}, {"measurement": "VND(K1/k2), nondisplaceable distribution volume, mean (SD)", "setting": "[7]; [14]", "value": "8.63 (2.06)"}, {"measurement": "K1, rate constant of transport, mean (SD)", "setting": "[7]; [15]", "value": "0.52 (0.09) min^−1"}, {"measurement": "Ki, net influx rate constant, mean (SD)", "setting": "[7]; [15]", "value": "0.006 (0.007) min^−1"}, {"measurement": "VND(K1/k2), nondisplaceable distribution volume, mean (SD)", "setting": "[7]; [15]", "value": "11.32 (1.58)"}, {"measurement": "K1, rate constant of transport, mean (SD)", "setting": "[7]; thalamus, baseline, N = 9", "value": "0.50 (0.08) min^−1"}, {"measurement": "Ki, net influx rate constant, mean (SD)", "setting": "[7]; thalamus, baseline, N = 9", "value": "0.024 (0.019) min^−1"}, {"measurement": "VND(K1/k2), nondisplaceable distribution volume, mean (SD)", "setting": "[7]; thalamus, baseline, N = 9", "value": "10.14 (2.56)"}, {"measurement": "K1, rate constant of transport, mean (SD)", "setting": "[7]; [16]", "value": "0.45 (0.05) min^−1"}, {"measurement": "Ki, net influx rate constant, mean (SD)", "setting": "[7]; [16]", "value": "0.021 (0.012) min^−1"}, {"measurement": "VND(K1/k2), nondisplaceable distribution volume, mean (SD)", "setting": "[7]; [16]", "value": "8.47 (1.88)"}]}, {"smiles": "CN(C(=N)Nc1cccc2ccccc12)c1cccc(I)c1", "note": "[[^123I]CNS1261]", "values": [{"measurement": "Kd", "setting": "NMDA receptor [3]", "value": "4.2 ± 0.4", "unit": "nM"}]}]}
